Experiments:
Carbonic anhydrase 1 = Carbonic anhydrase 1 (Homo sapiens, UniProt P00915); assay: Inhibition of human carbonic anhydrase-1 pre-incubated for 15 mins by stopped-flow CO2 hydration assay based Lineweaver-Burk plot method
Carbonic anhydrase 2 = Carbonic anhydrase 2 (Homo sapiens, UniProt P00918); assay: Inhibition of human carbonic anhydrase-2 pre-incubated for 15 mins by stopped-flow CO2 hydration assay based Lineweaver-Burk plot method
Carbonic anhydrase 12 = Carbonic anhydrase 12 (Homo sapiens, UniProt O43570); assay: Inhibition of human carbonic anhydrase-12 pre-incubated for 15 mins by stopped-flow CO2 hydration assay based Lineweaver-Burk plot method
Sequence of Carbonic anhydrase 12 (O43570 whole entry): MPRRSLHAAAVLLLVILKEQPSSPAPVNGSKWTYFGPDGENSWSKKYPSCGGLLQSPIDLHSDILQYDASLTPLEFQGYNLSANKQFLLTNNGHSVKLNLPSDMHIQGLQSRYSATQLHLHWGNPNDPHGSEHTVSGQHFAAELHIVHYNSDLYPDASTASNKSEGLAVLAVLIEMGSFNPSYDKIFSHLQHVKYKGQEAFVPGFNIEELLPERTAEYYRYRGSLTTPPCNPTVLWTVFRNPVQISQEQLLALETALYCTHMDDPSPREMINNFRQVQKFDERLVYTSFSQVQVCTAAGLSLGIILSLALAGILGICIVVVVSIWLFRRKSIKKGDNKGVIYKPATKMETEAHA

Carbonic anhydrase 9 = Carbonic anhydrase 9 (Homo sapiens, UniProt Q16790); assay: Inhibition of human carbonic anhydrase-9 pre-incubated for 15 mins by stopped-flow CO2 hydration assay based Lineweaver-Burk plot method
MCF7 [1] = assay: Cytotoxic activity against human MCF7 cells assessed as reduction in cell viability incubated for 24 hrs by MTT assay; type: functional, cell-based; settings: MCF7, 24 h
MDA-MB-231 [2] = assay: Cytotoxic activity against human MDA-MB-231 cells assessed as reduction in cell viability incubated for 24 hrs by MTT assay; type: functional, cell-based; settings: MDA-MB-231, 24 h
MCF7 [3] = assay: Inhibition of DNA synthesis in human MCF7 cells assessed as reduction in [3H]-thymidine incorporation incubated for 24 hrs by liquid scintillation counting method; type: functional, cell-based
MDA-MB-231 [4] = assay: Inhibition of DNA synthesis in human MDA-MB-231 cells assessed as reduction in [3H]-thymidine incorporation incubated for 24 hrs by liquid scintillation counting method; type: functional, cell-based

Sequence of Carbonic anhydrase 1 (P00915 whole entry): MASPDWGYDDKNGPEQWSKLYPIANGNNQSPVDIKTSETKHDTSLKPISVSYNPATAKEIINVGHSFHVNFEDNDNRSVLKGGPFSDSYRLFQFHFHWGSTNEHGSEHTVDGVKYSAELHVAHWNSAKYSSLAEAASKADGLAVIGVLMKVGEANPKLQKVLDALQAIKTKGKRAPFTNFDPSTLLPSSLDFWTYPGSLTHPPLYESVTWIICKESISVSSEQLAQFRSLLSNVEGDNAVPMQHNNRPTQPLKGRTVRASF

SMILES | Ki (Carbonic anhydrase 1) [nM] | Ki (Carbonic anhydrase 2) [nM] | Ki (Carbonic anhydrase 12) [nM] | Ki (Carbonic anhydrase 9) [nM] | IC50 (MCF7 [3]) [nM] | IC50 (MDA-MB-231 [4]) [nM] | IC50 (MCF7 [1]) [nM] | IC50 (MDA-MB-231 [2]) [nM]
CCOc1ccc(S(=O)(=O)N2CCNCC2)cc1-c1nnc2c(n1)c(C)nn2-c1ccc(Cl)cc1 | 4220 | > 50000 | 93.1 | – | – | – | – | –
CCOc1ccc(S(N)(=O)=O)cc1-c1nnc2c(n1)c(C)nn2-c1ccc(C)cc1 | 4490 | 7070 | 77.5 | – | – | – | – | –
CCOc1ccc(S(=O)(=O)N2CCN(C)CC2)cc1-c1nnc2c(n1)c(C)nn2-c1ccc(S(=O)(=O)N2CCN(C)CC2)c(Cl)c1 | 571 | > 50000 | 79.4 | 417 | – | – | – | –
CCOc1ccc(S(=O)(=O)N2CCN(C)CC2)cc1-c1nnc2c(n1)c(C)nn2-c1ccc(S(=O)(=O)N2CCN(C)CC2)cc1 | 467 | > 50000 | 536 | 29.6 | > 200000 | > 200000 | > 200000 | > 200000
CCOc1ccc(S(=O)(=O)N2CCN(C)CC2)cc1-c1nnc2c(n1)c(C)nn2-c1ccc(Cl)cc1 | 854 | > 50000 | 81.5 | 403 | > 200000 | > 200000 | > 200000 | > 200000
CCOc1ccc(S(=O)(=O)N2CCN(C)CC2)cc1-c1nnc2c(n1)c(C)nn2-c1ccc(C)cc1 | 330 | > 50000 | 78.1 | 25.4 | – | – | – | –

Continued, in another order:

Ki (Carbonic anhydrase 1) [nM] | Ki (Carbonic anhydrase 2) [nM] | Ki (Carbonic anhydrase 12) [nM] | Ki (Carbonic anhydrase 9) [nM] | IC50 (MCF7 [3]) [nM] | IC50 (MDA-MB-231 [4]) [nM] | SMILES | IC50 (MCF7 [1]) [nM] | IC50 (MDA-MB-231 [2]) [nM]
3720 | > 50000 | 70.3 | 26.6 | > 200000 | > 200000 | CCOc1ccc(S(=O)(=O)N[C@H](C)CC)cc1-c1nnc2c(n1)c(C)nn2-c1ccc(C)cc1 | > 200000 | > 200000
605 | > 50000 | 91.5 | 24.5 | – | – | CCOc1ccc(S(=O)(=O)NCCO)cc1-c1nnc2c(n1)c(C)nn2-c1ccc(C)cc1 | – | –
798 | > 50000 | 77.8 | 35.6 | > 200000 | > 200000 | CCOc1ccc(S(=O)(=O)NC[C@@H](C)O)cc1-c1nnc2c(n1)c(C)nn2-c1ccc(C)cc1 | > 200000 | > 200000
810 | > 50000 | 82.8 | 13.8 | > 200000 | > 200000 | CCOc1ccc(S(=O)(=O)NC[C@H](C)O)cc1-c1nnc2c(n1)c(C)nn2-c1ccc(C)cc1 | > 200000 | > 200000
3440 | > 50000 | 77.6 | 27.7 | > 200000 | > 200000 | CCOc1ccc(S(=O)(=O)N[C@@H](C)CC)cc1-c1nnc2c(n1)c(C)nn2-c1ccc(C)cc1 | > 200000 | > 200000
